In patent US10732108B2, “Fluorogenic water soluble hydrazine sensors” (priority 2017, dated 2020):

Experiment: Hydrazine diffusion into vesicles assay (fluorimetric kinetic hydrazine transmembrane diffusion, SUVs encapsulating compound 2)
Conditions: for hydrazine diffusion across a phospholipid membrane, t ½: FIG. 9, membranes of the phosphatidylcholine lipid
Description: (iii) Hydrazine Diffusion into Vesicles Assay
Example 5: Hydrazine Diffusion Assay Procedure
1.0 mg of phosphatidylcholine lipid in chloroform solution was dispensed into a 20 mL scintillation vial, dried under a stream of Ar, and put under house vacuum in a desiccator overnight. The vial was then removed from the desiccator, purged of air with a stream of Ar, closed, and sealed with Parafilm.
6.0 g of monobasic sodium phosphate was dissolved in 1 L MilliQ water to make a 50 mM solution. The pH of the solution was raised to 7.40 by addition of 5N NaOH (typically 9 mL). Depending on the amount of NaOH added, NaCl was added (typically 10 g) to form a 500 mosM buffer.
Loosely capped Falcon tubes containing 45 ml of buffer or MilliQ water were placed in a desiccator and put under house vacuum overnight. The desiccator was then filled with Ar by first capping the inlet with a rubber septum, then piercing the septum with two Ar-filled balloons with attached needles, then simultaneously closing the desiccator valve to vacuum and opening the desiccator valve to the inlet. The desiccator top was then removed and the Falcon tubes quickly closed and sealed with Parafilm.
425-430 mg of hydrazine hydrochloride was weighed and dispensed into a 25 ml reagent bottle pre-filled with Ar; the bottle was then purged of air with a stream of Ar and closed. 25 ml degassed MilliQ water was added to the bottle, along with 300 μl 5N NaOH, under a stream of Ar. The bottle was closed and shaken vigorously. The pH was then adjusted to 7.40±0.02 with 5N NaOH, purging of air with Ar immediately after each pH measurement with a glass electrode. The bottle was purged of air with a stream of Ar, closed, and sealed with Parafilm.
A suspension of Sepharose® CL-4B in 10-30% ethanol (Sigma) was added to an 8.5-cm size-exclusion column. Methanol was washed out of the column by flushing with at least 5 column volumes of 50 mM phosphate buffer (described above, section B). Then the column was capped with a rubber septum, the septum was pierced with an Ar-filled balloon with attached needle, and the column was run until the meniscus descended to the top of the resin. Then, under a stream of Ar, the head space was filled with degassed buffer (described above, section C) and the Falcon tube containing the degassed buffer was purged of any incidental air with a stream of Ar, then closed. […]
The vesicles were loaded onto the column under a stream of Ar and then degassed phosphate buffer was added to the column under a stream of Ar; the column was subsequently run under Ar. […] Vesicles were not visible by eye or upon exposure to a UV lamp; vesicles were detected by directing the beam from a 5 mW green laser pointer horizontally through the cuvette; upon elution of the vesicles, bright scattering was visible.

SMILES | hydrazine diffusion across a phospholipid membrane, t ½ [min] | N2H4 Diff. t1/2 (min) pH = 6.30 (pH = 6.30, SUVs of the lipid) [min] | N2H4 Diff. t1/2 (min) pH = 7.40 (pH = 7.40, SUVs of the lipid) [min]
CCCCCCCC/C=C\CCCCCCCCCCCC(=O)OC[C@H](COP(=O)([O-])OCC[N+](C)(C)C)OC(=O)CCCCCCCCCCC/C=C\CCCCCCCC [di22:1 PC (DEPC)] | 98.9 ± 6.0 | 583 ± 25 | 98.9 ± 6.0
CCCCCCCC/C=C\CCCCCCCC(=O)OC[C@H](COP(=O)([O-])OCC[N+](C)(C)C)OC(=O)CCCCCCC/C=C\CCCCCCCC [18:1 PC (DOPC)] | 54.4 ± 5.6 | – | –
